Laboratory results: the supplement of paper PMC6470124

Legend:
[1] = LC retention time (Atlantis T3, 5-95% MeOH gradient, 0.1% formic acid); higher = more retained / less polar
Method in brief: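 Retention times were recorded for reference standards on a polar reversed-phase C18 column. The standards were of purity ≥ 95%, and the Atlantis T3 column (3 × 150 mm, 3 μm) was run at 0.3 mL/min with a gradient from 5 to 95% methanol over 17.5 min, both water and methanol containing 0.1% formic acid. Detection used high-resolution tandem mass spectrometry on a QExactive Plus, with positive and negative electrospray in separate runs, and peaks were integrated in TraceFinder (5 ppm tolerance, at least three points per peak) before being checked by hand.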

[2] = absolute recovery over vacuum-assisted evaporative concentration; higher = better recovery; conditions: enrichment method: VEC
Method in brief: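 Samples of influent (6 mL), effluent (15 mL) and surface or nanopure water (60 mL) were spiked with standards before or after concentration, or left unspiked, at 200 ng/L (nanopure/surface) or 1000 ng/L (wastewater), adjusted by class and compound. Concentration was by evaporation at 55 °C and 20 mbar to about 0.3 mL, followed by adjustment to 0.4 mL and centrifugation. Internal standards were then added for LC-HRMS/MS analysis. Absolute recovery was (response ratio pre − unspiked)/(post − unspiked) × 100, using averages of ≥ 2 replicates.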

[3] = absolute recovery over mixed-bed multilayer solid-phase extraction; higher = better recovery; conditions: enrichment method: SPE
Method in brief: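 Absolute recovery was calculated by comparing background-corrected response ratios of samples spiked before extraction with those spiked after it, averaged over at least two replicates. Wastewater (100–250 mL, adjusted to pH 6.5 and glass-fibre filtered) or 1000 mL of unfiltered nanopure water was passed through a three-layer mixed-bed cartridge and eluted with basic and then acidic ethyl acetate/methanol. Standards were added before extraction, after extraction, or not at all, at 200 ng/L in water or 1000 ng/L in wastewater, with exceptions for some classes. Internal standards were added afterwards, and samples were analysed by liquid chromatography with high-resolution tandem mass spectrometry in both ionisation modes.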

Compound	LC retention time [1] [min]	absolute recovery ([2]; wastewater effluent) [%]	absolute recovery ([2]; wastewater influent) [%]	absolute recovery ([3]; nanopure water) [%]	absolute recovery ([3]; surface water) [%]	absolute recovery ([3]; wastewater effluent) [%]	absolute recovery ([3]; wastewater influent) [%]
CON(C)C(=O)Nc1ccc(Cl)c(Cl)c1 [Linuron]	19.5	101	99.8	96.5	98.3	92.4	93.3
O=C1Nc2ccc(Cl)cc2C(c2ccccc2Cl)=NC1O (stereo not drawn) [Lorazepam]	18.3	108	104	104	94.3	97.3	87.4
CCCCc1nc(Cl)c(CO)n1Cc1ccc(-c2ccccc2-c2nn[nH]n2)cc1 [Losartan]	18.3	99.1	105	85.5	85.9	80.1	88
CCC(C)C(=O)OC1CC(C)C=C2C=CC(C)C(CCC3CC(O)CC(=O)O3)C21 (stereo not drawn) [Lovastatin]	22.2	107	106	70.5	70.9	76.1	59.5
Cc1cc(Cl)ccc1OCC(=O)[O-] [MCPA]	19.3	102	103	96.1	92.9	92.7	94.2
Cc1cc(Cl)ccc1OCCCC(=O)[O-] [MCPB]	20.3	103	–	100	95.2	97.5	108
C#CCOc1ccc(CCNC(=O)C(OCC#C)c2ccc(Cl)cc2)cc1OC (stereo not drawn) [Mandipropamid]	19.2	110	112	105	117	110	93.5
Cc1cc(Cl)ccc1OC(C)C(=O)[O-] (stereo not drawn) [Mecoprop]	20	101	99	100	99.2	94.9	94.2
CN1CC[NH+]=C(c2ccccc2)c2cc(Cl)ccc21 [Medazepam]	14.5	103	109	83.9	95.2	93.6	68.8
Cc1cccc(Nc2ccccc2C(=O)[O-])c1C [Mefenamic-acid]	21.9	102	97.7	101	95.7	93.3	–
CCOC(=O)C1=NN(c2ccc(Cl)cc2Cl)C(C)(C(=O)OCC)C1 (stereo not drawn) [Mefenpyr-diethyl]	21.1	84.3	87.1	98	107	96.9	95
CC12CC3CC(C)(C1)CC([NH3+])(C3)C2 [Memantine]	14.9	100	114	83.4	83.5	89.2	78
CC#Cc1cc(C)nc(Nc2ccccc2)n1 [Mepanipyrim]	20.2	95.3	62.1	93.5	107	103	94.9
CCOC(=O)C1(c2ccccc2)CC[NH+](C)CC1 [Meperidine]	12.8	99.2	103	88.6	87.8	86.8	96.6
C[NH2+]C(C)C(=O)c1ccc(C)cc1 (stereo not drawn) [Mephedron (=4-Methylmethcathinon)]	11.4	76.7	71.4	62.3	66.2	62.8	72.7
Cc1cccc(C)c1NC(=O)C1CCCC[NH+]1C (stereo not drawn) [Mepivacaine]	11.6	106	103	78.4	74.7	80	89.6
CCC1(c2cccc(O)c2)CCCC[NH+](C)C1 (stereo not drawn) [Meptazinol]	12.1	110	103	90.6	92.9	86.5	91.9
COC(=O)c1ccc(CNS(C)(=O)=O)cc1S(=O)(=O)[N-]C(=O)Nc1nc(OC)cc(OC)n1 [Mesosulfuron-methyl]	18	111	101	101	95	96.2	98.7
CS(=O)(=O)c1ccc(C(=O)[O-])c([N+](=O)[O-])c1 [Mesotrion-MNBA]	9.31	98.9	104	98	57.1	89.3	93.6
CS(=O)(=O)c1ccc(C(=O)[C-]2C(=O)CCCC2=O)c([N+](=O)[O-])c1 [Mesotrion]	16	103	103	–	96.5	94.6	80.1
COCC(=O)N(c1c(C)cccc1C)C(C)C(=O)OC (stereo not drawn) [Metalaxyl]	18.4	103	97.8	96.6	95.8	93.6	94.7
Cc1nnc(-c2ccccc2)c(=O)[n-]1 [Metamitron-Desamino]	14.5	112	107	97.9	97.8	89.8	90.1
Cc1nnc(-c2ccccc2)c(=O)n1N [Metamitron]	14.3	106	98.5	97.1	–	95.8	97.5
Cc1cc(C)cc(OCC2CNC(=O)O2)c1 (stereo not drawn) [Metaxalone]	17.8	95.8	99.2	104	85.9	87.1	87.9
Cc1cccc(C)c1N(Cn1cccn1)C(=O)CS(=O)(=O)[O-] [Metazachlor-ESA]	17.5	102	104	98.7	95.6	96.8	97.6
Cc1cccc(C)c1N(Cn1cccn1)C(=O)C(=O)[O-] [Metazachlor-OXA]	17.1	108	103	95.6	97.5	92.4	87.4
